From US20070128217A1 (priority 2003, published 2007)

How the values were obtained:
[1] = tested on: control sera (pooled serum of ten healthy LUMC hospital workers; commercial negative donor pooled serum from the Dutch bloodbank); format: binding, human; parameters: Binding of Control serum LUMC to linear peptides / Binding of Control serum Blood-bank to linear peptides / Binding of Control serum LUMC to looped peptides / Binding of Control Serum Blood-Bank to Looped peptides / Binding of Control serum LUMC to linear peptides of the protein M of SARS-CoV Urbani / Binding of Control serum Blood-bank to linear peptides of the protein M of SARS-CoV Urbani / Binding of Control serum LUMC to looped peptides of the protein M of SARS-CoV Urbani / Binding of Control Serum Blood-Bank to Looped peptides of the protein M of SARS-CoV Urbani: unit not given here
[2] = tested on: antibodies in sera from SARS patients (sera 1a, 1b, 2, 6, 37, 62, London, SARS-yellow, SARS-green); format: binding, human; parameters: Binding of serum 6 to linear peptides of protein X1 of SARS-CoV Urbani / Binding of serum 37 to linear peptides of protein X1 of SARS-CoV Urbani / Binding of serum 6 to looped/cyclic peptide (PEPSCAN-ELISA) / Binding of serum 37 to looped/cyclic peptide (PEPSCAN-ELISA) / Binding of serum 37 to looped/cyclic peptides of protein X1 of SARS-CoV Urbani / Binding of serum 6 to linear peptides of protein X2 / Binding of serum 37 to linear peptides of protein X2 / Binding of serum 37 to looped/cyclic peptides of protein X2 of SARS-CoV Urbani / Binding of serum 6 to linear peptides of protein M of SARS-CoV Urbani / Binding of serum 37 to linear peptides of protein M of SARS-CoV Urbani / Binding of serum 6 to looped/cyclic peptides of protein M of SARS-CoV Urbani / Binding of serum 37 to looped/cyclic peptides of protein M of SARS-CoV Urbani / Binding of serum 6 to linear peptides of protein X3 of SARS-CoV Urbani / Binding of serum 37 to linear peptides of protein X3 of SARS-CoV Urbani / Binding of serum 37 to looped/cyclic peptides of protein X3 of SARS-CoV Urbani / Binding of serum 6 to linear peptides of protein X4 of SARS-CoV Urbani / Binding of serum 37 to linear peptides of protein X4 of SARS-CoV Urbani / Binding of serum 37 to looped/cyclic peptides of protein X4 of SARS-CoV Urbani / Binding of serum 6 to linear peptides of protein X5 of SARS-CoV Urbani / Binding of serum 37 to linear peptides of protein X5 of SARS-CoV Urbani / Binding of serum 37 to looped/cyclic peptides of protein X5 of SARS-CoV Urbani / Binding of serum 6 to linear peptides of protein N of SARS-CoV Urbani / Binding of serum 37 to linear peptides of protein N of SARS-CoV Urbani / Binding of serum 6 to linear peptide (PEPSCAN-ELISA) / Binding of serum 1a to looped/cyclic peptides of protein N of SARS-CoV Urbani / Binding of serum 1b to looped/cyclic peptides of protein N of SARS-CoV Urbani / Binding of serum 2 to looped/cyclic peptides of protein N of SARS-CoV Urbani / Binding of serum 6 to looped/cyclic peptides of protein N of SARS-CoV Urbani / Binding of serum 37 to looped/cyclic peptides of protein N of SARS-CoV Urbani / Binding of serum 62 to looped/cyclic peptides of protein N of SARS-CoV Urbani / Binding of serum London to looped/cyclic peptides of protein N of SARS-CoV Urbani / Binding of serum SARS-green to looped/cyclic peptides of protein N of SARS-CoV Urbani: unit not given here
[3] = tested on: rabbit serum obtained by immunizing a rabbit with the SARS-CoV strain Frankfurt 1; format: binding; parameters: Binding of a rabbit serum to linear peptides / Binding of a rabbit serum to looped peptides / Rabbit serum linear peptides / Rabbit serum looped peptides / Binding of a rabbit serum to linear peptides of protein N of SARS-CoV Urbani (Rabbit serum linear peptides) / Binding of a rabbit serum to looped/cyclic peptides of protein N of SARS-CoV Urbani (Rabbit serum looped peptides): unit not given here
[4] = tested on: recombinant human anti-SARS-CoV antibody 03-018; format: binding; parameters: Binding of antibody 03-018 to linear peptides of the N protein of SARS-CoV Urbani / Binding of antibody 03-018 to looped/cyclic peptides of the N protein of SARS-CoV Urbani: unit not given here

| Sequence | Binding of serum 1a to linear peptides of protein N of SARS-CoV Urbani [2] | Binding of serum 1a to looped/cyclic peptides of protein N of SARS-CoV Urbani [2] | Binding of serum 1b to linear peptides of protein N of SARS-CoV Urbani [2] | Binding of serum 1b to looped/cyclic peptides of protein N of SARS-CoV Urbani [2] | Binding of serum 2 to linear peptides of protein N of SARS-CoV Urbani [2] | Binding of serum 2 to looped/cyclic peptides of protein N of SARS-CoV Urbani [2] | Binding of serum 6 to linear peptides of protein N of SARS-CoV Urbani [2] | Binding of serum 6 to looped/cyclic peptides of protein N of SARS-CoV Urbani [2] | Binding of serum 37 to linear peptides of protein N of SARS-CoV Urbani [2] | Binding of serum 37 to looped/cyclic peptides of protein N of SARS-CoV Urbani [2] | Binding of serum 62 to linear peptides of protein N of SARS-CoV Urbani [2] | Binding of serum 62 to looped/cyclic peptides of protein N of SARS-CoV Urbani [2] | Binding of serum London to linear peptides of protein N of SARS-CoV Urbani [2] | Binding of serum London to looped/cyclic peptides of protein N of SARS-CoV Urbani [2] | Binding of serum SARS-green to linear peptides of protein N of SARS-CoV Urbani [2] | Binding of serum SARS-green to looped/cyclic peptides of protein N of SARS-CoV Urbani [2] | Binding of serum SARS-yellow to linear peptides of protein N of SARS-CoV Urbani [2] | Binding of serum SARS-yellow to looped/cyclic peptides of protein N of SARS-CoV Urbani [2] | Binding of a rabbit serum to linear peptides of protein N of SARS-CoV Urbani (Rabbit serum linear peptides) [3] | Binding of a rabbit serum to looped/cyclic peptides of protein N of SARS-CoV Urbani (Rabbit serum looped peptides) [3] | other results |
| --- | --- | --- | --- | --- | --- | --- | --- | --- | --- | --- | --- | --- | --- | --- | --- | --- | --- | --- | --- | --- | --- |
| LTQHGKEELRFPRGQ | 0.2 | 0.4 | 0.1 | 0.2 | 0.3 | 0.4 | 0.2 | 0.3 | 0.6 | 0.6 | 0.7 | 0.4 | 0.4 | 0.4 | 0.3 | 0.3 | 0.6 | 0.4 | 0.1 | 0.4 | Binding of Control Serum Blood-Bank to Looped peptides [1]: 0.6; Binding of Control serum Blood-bank to linear peptides [1]: 0.8; Binding of Control serum LUMC to linear peptides [1]: 0.6; Binding of Control serum LUMC to looped peptides [1]: 0.6; Binding of antibody 03-018 to linear peptides of the N protein of SARS-CoV Urbani [4]: 0.1; Binding of antibody 03-018 to looped/cyclic peptides of the N protein of SARS-CoV Urbani [4]: 0.2 |
| LTYHGAIKLDDKDPQ | 0.2 | 0.3 | 0.1 | 0.1 | 0.2 | 0.3 | 0.2 | 0.1 | 0.6 | 0.5 | 1.0 | 0.3 | 0.5 | 0.4 | 0.2 | 0.1 | 0.7 | 0.4 | 0.1 | 0.5 | Control Serum Blood-Bank Looped peptides [1]: 0.5; Control serum Blood-bank linear peptides [1]: 0.7; Control serum LUMC linear peptides [1]: 0.6; Control serum LUMC looped peptides [1]: 0.5; Binding of antibody 03-018 to linear peptides of the N protein of SARS-CoV Urbani [4]: 0.1; Binding of antibody 03-018 to looped/cyclic peptides of the N protein of SARS-CoV Urbani [4]: 0.2 |
| MEVTPSGTWLTYHGA | 0.3 | 0.4 | 0.1 | 0.3 | 0.1 | 0.5 | 0.2 | 0.3 | 0.6 | 0.7 | 0.5 | 0.8 | 0.5 | 0.5 | 0.2 | 0.5 | 0.7 | 0.4 | 0.1 | 0.4 | Control Serum Blood-Bank Looped peptides [1]: 0.7; Control serum Blood-bank linear peptides [1]: 0.8; Control serum LUMC linear peptides [1]: 0.6; Control serum LUMC looped peptides [1]: 0.8; Binding of antibody 03-018 to linear peptides of the N protein of SARS-CoV Urbani [4]: 0.1; Binding of antibody 03-018 to looped/cyclic peptides of the N protein of SARS-CoV Urbani [4]: 0.2 |
